Experimental data taken from patent US20230278996A1, “YKL-40 INHIBITORS AND THEIR THERAPEUTIC APPLICATIONS” (Molecure S.A., priority 2022, published 2023).
Where a name gives a salt, the structure may show the parent alone.

The compounds below were run against YKL-40 (Homo sapiens (Human), UniProt P36222) (assay: YKL-40:4 assay, competitive chitin binding site AlphaScreen). Details: competition with biotinylated compound 4 (20 nM), YKL-40-histag 2.5 nM.
YKL-40, sequence (P36222 22-383): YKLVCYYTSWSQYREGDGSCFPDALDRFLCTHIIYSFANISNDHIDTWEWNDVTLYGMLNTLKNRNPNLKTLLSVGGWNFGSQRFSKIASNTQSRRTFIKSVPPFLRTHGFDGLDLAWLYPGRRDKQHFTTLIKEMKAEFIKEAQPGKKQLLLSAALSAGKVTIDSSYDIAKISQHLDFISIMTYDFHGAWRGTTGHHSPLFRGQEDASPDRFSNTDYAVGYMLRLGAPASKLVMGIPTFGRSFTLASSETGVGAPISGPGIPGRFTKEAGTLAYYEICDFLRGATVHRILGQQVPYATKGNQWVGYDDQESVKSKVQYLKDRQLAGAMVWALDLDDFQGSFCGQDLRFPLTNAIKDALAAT

Compared with `C[C@H]1CN(C2CCN(c3ncccc3C(F)(F)F)CC2)[C@@H](Cc2ccc(Cl)cc2)CO1` [compound 49, (2S,5S)-5-(4-chlorobenzyl)-2-methyl-4-(1-(3-(trifluoromethyl)pyridin-2-yl)-piperidin-4-yl)morpholine 2,2,2-trifluoroacetate], `C[C@H]1CN(C2CCN(c3ccnc(Cl)n3)CC2)[C@@H](Cc2ccc(Cl)cc2)CO1` [compound 66, (2S,5S)-5-(4-chlorobenzyl)-4-(1-(2-chloropyrimidin-4-yl)piperidin-4-yl)-2-methylmorpholine] is higher in IC50: 10 to 100 µM for the first, greater than 100 µM for the second. The first is the more potent here.

`CN1C[C@H](Cc2ccc(Cl)cc2)N(C2CCN(c3cc(Cl)ccn3)CC2)C[C@@H]1CO` [compound 50, ((2R,5S)-5-(4-chlorobenzyl)-4-(1-(4-chloropyridin-2-yl)piperidin-4-yl)-1-methyl-piperazin-2-yl)methanol] and `CN1CCN(C[C@H]2CN(C3CCN(c4cc(Cl)ccn4)CC3)[C@@H](Cc3ccc(Cl)cc3)CN2C)CC1` [compound 83, (2S,5S)-2-(4-chlorobenzyl)-1-(1-(4-chloropyridin-2-yl)piperidin-4-yl)-4-methyl-5-((4-methylpiperazin-1-yl)methyl)piperazine 2,2,2-trifluoroacetate] cannot be ordered by IC50: less than 0.1 µM for the first, less than 0.1 µM for the second.

First: C[C@H]1CN(C2C[C@H]3CC[C@@H](C2)N3c2cc(Cl)ccn2)[C@@H](Cc2ccc(Cl)cc2)CO1 (stereo partly drawn) [compound 58, (2S,5S)-5-(4-chlorobenzyl)-4-((1R,5S)-8-(4-chloropyridin-2-yl)-8-azabicyclo[3.2.1]octan-3-yl)-2-methylmorpholine 2,2,2-trifluoroacetate]
Second: CO[C@@H]1CN(c2cc(Cl)ccn2)CC[C@@H]1N1C[C@H](C)OC[C@@H]1Cc1ccc(Cl)cc1 [compound 59, (2S,5S)-5-(4-chlorobenzyl)-4-((3R,4S)-1-(4-chloropyridin-2-yl)-3-methoxypiperidin-4-yl)-2-methylmorpholine 2,2,2-trifluoroacetate]
The IC50 of the first is higher: greater than 100 µM for the first, 1 to 10 µM for the second.

First: CO[C@H]1CN(c2cc(Cl)ccn2)CC[C@@H]1N1C[C@H](C)OC[C@@H]1Cc1ccc(Cl)cc1 [compound 60, (2S,5S)-5-(4-chlorobenzyl)-4-((3S,4S)-1-(4-chloropyridin-2-yl)-3-methoxypiperidin-4-yl)-2-methylmorpholine 2,2,2-trifluoroacetate]
Second: C[C@H]1CN(C2CCN(c3ccnc(N)n3)CC2)[C@@H](Cc2ccc(Cl)cc2)CO1 [compound 67, 4-(4-((2S,5S)-5-(4-chlorobenzyl)-2-methylmorpholino)piperidin-1-yl)pyrimidin-2-amine 2,2,2-trifluoroacetate]
The IC50 of the first is lower: 10 to 100 µM for the first, greater than 100 µM for the second. The first is the more potent here.

First: CC(C)[C@H]1CN(C2CCN(c3ccccn3)CC2)[C@@H](Cc2ccc(Cl)cc2)CN1C [compound 62, (2S,5S)-2-(4-chlorobenzyl)-5-isopropyl-4-methyl-1-(1-(pyridin-2-yl)piperidin-4-yl)piperazine 2,2,2-trifluoroacetate]
Second: CC[C@H]1CN(C2CCN(c3ccccn3)CC2)[C@@H](Cc2ccc(Cl)cc2)CN1C [compound 93, (2S,5S)-2-(4-chlorobenzyl)-5-ethyl-4-methyl-1-(1-(pyridin-2-yl)piperidin-4-yl)piperazine 2,2,2-trifluoroacetate]
The IC50 of the first is lower: less than 0.1 µM for the first, 10 to 100 µM for the second.

`CN1CCN(C2CCN(c3ccccn3)CC2)[C@@H](Cc2ccc(Cl)cc2)C1` [compound 64, (S)-2-(4-chlorobenzyl)-4-methyl-1-(1-(pyridin-2-yl)piperidin-4-yl)piperazine 2,2,2-trifluoroacetate] and `Clc1ccc(C[C@H]2COCCN2C2CCN(c3ccccn3)CC2)cc1` [compound 88, (S)-3-(4-chlorobenzyl)-4-(1-(pyridin-2-yl)piperidin-4-yl)morpholine 2,2,2-trifluoroacetate] fall in the same range of IC50: 0.1 to 1 µM for the first, 0.1 to 1 µM for the second.

First: CN(C)C(=O)OC[C@H]1CN(C2CCN(c3ncccn3)CC2)[C@@H](Cc2ccc(Cl)cc2)CO1 [compound 70, ((2R,5S)-5-(4-chlorobenzyl)-4-(1-(pyrimidin-2-yl)piperidin-4-yl)morpholin-2-yl)methyl dimethylcarbamate 2,2,2-trifluoroacetate]
Second: CC(=O)NC[C@H]1CN(C2CCN(c3ncccn3)CC2)[C@@H](Cc2ccc(Cl)cc2)CO1 [compound 75, N-(((2S,5S)-5-(4-chlorobenzyl)-4-(1-(pyrimidin-2-yl)piperidin-4-yl)morpholin-2-yl)methyl)acetamide 2,2,2-trifluoroacetate]
The IC50 of the first is higher: 1 to 10 µM for the first, 0.1 to 1 µM for the second.

`CN1CCN(C[C@H]2CN(C3CCN(c4ncccn4)CC3)[C@@H](Cc3ccc(Cl)cc3)CO2)CC1` [compound 71, (2S,5S)-5-(4-chlorobenzyl)-2-((4-methylpiperazin-1-yl)methyl)-4-(1-(pyrimidin-2-yl)piperidin-4-yl)morpholine 2,2,2-trifluoroacetate] and `O[C@@H]1CCN(C[C@H]2CN(C3CCN(c4ncccn4)CC3)[C@@H](Cc3ccc(Cl)cc3)CO2)C1` [compound 73, (R)-1-(((2S,5S)-5-(4-chlorobenzyl)-4-(1-(pyrimidin-2-yl)piperidin-4-yl)morpholin-2-yl)methyl)pyrrolidin-3-ol 2,2,2-trifluoroacetate] fall in the same range of IC50: 1 to 10 µM for the first, 1 to 10 µM for the second.

`CN(C)CCN(C)C[C@H]1CN(C2CCN(c3ncccn3)CC2)[C@@H](Cc2ccc(Cl)cc2)CO1` [compound 72, N^1-(((2S,5S)-5-(4-chlorobenzyl)-4-(1-(pyrimidin-2-yl)piperidin-4-yl)morpholin-2-yl)methyl)-N^1,N^2,N^2-trimethylethane-1,2-diamine 2,2,2-trifluoroacetate] and `O=C1CNC(=O)N1C[C@H]1CN(C2CCN(c3ncccn3)CC2)[C@@H](Cc2ccc(Cl)cc2)CO1` [compound 78, 3-(((2R,5S)-5-(4-chlorobenzyl)-4-(1-(pyrimidin-2-yl)piperidin-4-yl)morpholin-2-yl)methyl)imidazolidine-2,4-dione 2,2,2-trifluoroacetate] fall in the same range of IC50: 1 to 10 µM for the first, 1 to 10 µM for the second.

`O[C@H]1CCN(C[C@H]2CN(C3CCN(c4ncccn4)CC3)[C@@H](Cc3ccc(Cl)cc3)CO2)C1` [compound 74, (S)-1-(((2S,5S)-5-(4-chlorobenzyl)-4-(1-(pyrimidin-2-yl)piperidin-4-yl)morpholin-2-yl)methyl)pyrrolidin-3-ol 2,2,2-trifluoroacetate] and `O=C1CCC(=O)N1C[C@H]1CN(C2CCN(c3ncccn3)CC2)[C@@H](Cc2ccc(Cl)cc2)CO1` [compound 77, 1-(((2R,5S)-5-(4-chlorobenzyl)-4-(1-(pyrimidin-2-yl)piperidin-4-yl)morpholin-2-yl)methyl)pyrrolidine-2,5-dione 2,2,2-trifluoroacetate] fall in the same range of IC50: 1 to 10 µM for the first, 1 to 10 µM for the second.

`O=C1c2ccccc2C(=O)N1C[C@H]1CN(C2CCN(c3ncccn3)CC2)[C@@H](Cc2ccc(Cl)cc2)CO1` [compound 76, 2-(((2R,5S)-5-(4-chlorobenzyl)-4-(1-(pyrimidin-2-yl)piperidin-4-yl)morpholin-2-yl)methyl)isoindoline-1,3-dione dihydrochloride] and `Clc1ccc(C[C@H]2COc3ccccc3CN2C2CCN(c3ccccn3)CC2)cc1` [compound 81, (S)-3-(4-chlorobenzyl)-4-(1-(pyridin-2-yl)piperidin-4-yl)-2,3,4,5-tetrahydrobenzo[f][1,4]oxazepine hydrochloride] cannot be ordered by IC50: greater than 100 µM for the first, greater than 100 µM for the second.

Compared with `CN1C[C@H](Cc2ccc(Cl)cc2)N(C2CCN(c3cc(Cl)ccn3)CC2)C[C@@H]1COc1ccc2ccccc2c1` [compound 84, (2S,5R)-2-(4-chlorobenzyl)-1-(1-(4-chloropyridin-2-yl)piperidin-4-yl)-4-methyl-5-((naphthalen-2-yloxy)methyl)piperazine 2,2,2-trifluoroacetate], `C[C@@H](O)CN1C[C@H](Cc2ccc(Cl)cc2)N(C2CCN(c3ccccn3)CC2)C[C@@H]1C` [compound 102, (R)-1-((2S,5S)-5-(4-chlorobenzyl)-2-methyl-4-(1-(pyridin-2-yl)piperidin-4-yl)piperazin-1-yl)propan-2-ol 2,2,2-trifluoroacetate] is lower in IC50: greater than 100 µM for the first, 0.1 to 1 µM for the second. The second is the more potent here.

First: C[C@H]1CN(C2CCN(c3ccccn3)C(=O)C2)[C@@H](Cc2ccc(Cl)cc2)CO1 (stereo partly drawn) [compound 85, 4-((2S,5S)-5-(4-chlorobenzyl)-2-methylmorpholino)-1-(pyridin-2-yl)piperidin-2-one 2,2,2-trifluoroacetate]
Second: C[C@H]1CN(C2CCN(c3ccccn3)CC2)[C@@H](Cc2ccc(Cl)cc2)CN1CC(=O)N(C)C [compound 101, 2-((2S,5S)-5-(4-chlorobenzyl)-2-methyl-4-(1-(pyridin-2-yl)piperidin-4-yl)piperazin-1-yl)-N,N-dimethylacetamide]
The IC50 of the first is higher: 10 to 100 µM for the first, 0.1 to 1 µM for the second. The second is the more potent here.

`COC1(C)CCN(C2CCN(c3ccccn3)CC2)[C@@H](Cc2ccc(Cl)cc2)C1` (stereo partly drawn) [compound 91, (2S)-2-(4-chlorobenzyl)-4-methoxy-4-methyl-1′-(pyridin-2-yl)-1,4′-bipiperidine 2,2,2-trifluoroacetate] and `CC1(O)CCN(C2CCN(c3ccccn3)CC2)[C@@H](Cc2ccc(Cl)cc2)C1` (stereo partly drawn) [compound 92, (2S)-2-(4-chlorobenzyl)-4-methyl-1′-(pyridin-2-yl)-[1,4′-bipiperidin]-4-ol 2,2,2-trifluoroacetate] cannot be ordered by IC50: less than 0.1 µM for the first, less than 0.1 µM for the second.

`CC[C@H]1CN(C2CCN(c3ccccn3)CC2)[C@@H](Cc2ccc(Cl)cc2)CN1CC(C)C` [compound 94, (2S,5S)-2-(4-chlorobenzyl)-5-ethyl-4-isobutyl-1-(1-(pyridin-2-yl)piperidin-4-yl)piperazine 2,2,2-trifluoroacetate] and `COC(C)(C)CN1C[C@H](Cc2ccc(Cl)cc2)N(C2CCN(c3ccccn3)CC2)C[C@@H]1CC(C)C` [compound 100, (2S,5S)-2-(4-chlorobenzyl)-5-isobutyl-4-(2-methoxy-2-methylpropyl)-1-(1-(pyridin-2-yl)piperidin-4-yl)piperazine 2,2,2-trifluoroacetate] fall in the same range of IC50: 1 to 10 µM for the first, 1 to 10 µM for the second.

For `C[C@H]1CN(C2CCN(c3ccccn3)CC2)[C@@H](Cc2ccc(Cl)cc2)CN1CC(=O)NC1CC1` [compound 103, 2-((2S,5S)-5-(4-chlorobenzyl)-2-methyl-4-(1-(pyridin-2-yl)piperidin-4-yl)piperazin-1-yl)-N-cyclopropylacetamide 2,2,2-trifluoroacetate], the IC50 was 0.1 to 1 µM.
